Consider four compounds from US20240226342A1, “REACTIVE OXYGEN SPECIES IMAGING AGENTS” (Washington University, priority 2022, published 2024).

Entries after “also recorded” stand apart in the source; their conditions may differ. Read-outs that look alike come from different tables or passages of the source.

The test system of series [1] is reactive oxygen species (superoxide, hydroxyl radical). As to the kind of experiment: Detection of reactive oxygen species in vitro, fluorescence plate reader assay (G-GO, X-XO, SIN-1 systems). It counts as biochemical. Here is the method:
FIG. 3 is a bar graph showing evaluation of SLN128 for detection of reactive oxygen species in vitro in accordance with the present disclosure. Data are shown as mean fluorescence intensity (arbitrary units)±SD, where ****p<0.0001 values are determined by an unpaired student t-test. (Abbreviations: G: Glucose; GOX: Glucose oxidase; HRP: Horseradish peroxidase; X: Xanthine; XO: Xanthine oxidase; SOD: Superoxide Dismutase; CAT: Catalase. All values are normalized to fluorescence output of untreated SLN128 (control). Please note response to HRP induced hydroxyl radical in GGO system, its mitigation with CAT; and response to HX-XO (superoxide) and its intervention with SOD.
Of note, superoxide can originate from numerous sources in vivo, including the mitochondrial electron transport chain and NADPH oxidase(s), which are activated under conditions of inflammation, ischemia, and tissue injury. […] Therefore, the ability to detect elevated ROS in patients could provide a better understanding of relationships between ROS, tissue injury, and disease staging including information on signaling cascade that promote inflammation. To measure ROS production, various methods that use colorimetry, chemiluminescence, and fluorescence have been deployed, While xanthine-xanthine oxidase (X-XO) and SIN-1 have been used for production of superoxide and nitric oxide (wherein the combination produces peroxynitrite), respectively, the glucose-glucose oxidase (G-GO) system is useful for production of hydrogen peroxide. Employing concentrations of SLN128 and G-GO, and X-XO in vitro conditions described previously, the ability of SLN-128 or 12 to detect different reactive oxygen species at 37° C. in PBS was evaluated under physiological conditions (pH 7.2) and normalized by background fluorescence output of untreated SLN128 as a control using a fluorescence plate reader assay (see e.g., FIG. 3). […] Under both conditions, oxidation of the probe was neutralized by the addition of superoxide dismutase (SOD) (see e.g., FIG. 3). […] (see e.g., FIG. 3).

A short description of series [2]: Fluorescence emission of the probe before and after oxidation. It counts as physicochemical.
The subject of series [3] is microglial cells and neurons in brain sections. As to the kind of experiment: Ex vivo fluorescence of brain sections after tail-vein injection of unlabeled SLN128 into 3-NP treated mice. It counts as in vivo. Particulars: anti-IBA1 and anti-NeuN. Here is the method:
FIG. 11 includes images showing post PET/CT imaging in accordance with the present disclosure. SLN128 (100 μL; 1 mg/mL) was injected through tail-vein into 3NP-or saline treated mice, and brain tissue was processed as described in FIG. 10A-FIG. 10D.
Systemic administration of LPS induces oxidative stress and resulting a release of inflammatory cytokines, sustained microglial activation, and neuronal cell loss in brain areas, such as the hippocampus, cerebral cortex, substantia nigra, ventral tegmental area, and thalamus, alters the levels of neurotransmitters in adult animals, and cerebellum. Thus LPS-induced inflammation provides a useful rodent model for preclinical imaging of ^18F-SLN-128. […] Finally, the brain uptake (see e.g., FIG. 9C) derived from PET imaging also correlated with 60 min post imaging quantified uptake (see e.g., FIG. 9D) indicating potential of the radiotracer for imaging endotoxin mediated brain inflammation in vivo. Mitochondrial dysfunction is a major event in the pathogenesis of Huntington disease (HD). It has also been reported that systemic 3-NP administration leads to oxidized proteins in the striatum, as well as a massive loss of striatal neurons. To evaluate potential of ^18F-SLN-128 PET imaging for 3NP-induced ROS-mediated neurodegeneration in mice, PET/CT imaging was performed.

Series [4] concerns human glioblastoma U87 cells. The experiment in a line: Live-cell fluorescence imaging of cellular accumulation in U87 cells. Type of series: cell-based. Particulars: for intracellular localization: U87 cells, 100× objective, with mitotracker / mitoSOX. The protocol:
FIG. 4 includes images showing cellular accumulation of SLN128 (20 nM) in human glioblastoma (U87) cells using live-cell fluorescence imaging: intracellular localization in accordance with the present disclosure. SLN128 was incubated at 37° C. for 1 h with either mitotracker red/or mitoSOX Deep Red in human U87MG cells. Images were acquired using a 100×objective.
FIG. 5 includes images showing cellular accumulation of SLN128 (20 nM) in human glioblastoma (U87) cells using live-cell fluorescence imaging in accordance with the present disclosure. SLN128 was incubated for 1 h either with media (control), LPS treated (1 μg/mL; 3 h) or 3-nitropropionic acid (3-NP; 10 μg/mL) human U87MG cells: Images were acquired using a 20×objective.
FIG. 6 is a bar graph showing cellular accumulation of SLN128 in either serum and glucose deprived- or LPS or 3 NP-treated U87 cells in either presence or absence of resveratrol (10 μM) in accordance with the present disclosure. Images were acquired using a 20×objective (all panels represent same magnification) in live human U87 cells. While U87 control cells were plated under normal conditions, both serum-and glucose-deprived (Starvation), and LPS/3-NP treated cells were allowed to recover in presence of resveratrol) for 24 h and treated with SLN-128(20 nM) for 60 min, cell uptake was evaluated via live-cell imaging, and quantified as described earlier. Corrected Total Cell Fluorescence (CTCF)=Integrated Density-(Area of selected cell X Mean fluorescence of background readings); (mean±SD), where **p<0.01 and […] are determined by an unpaired student t-test.
Lipopolysaccharide (LPS), is an endotoxin, released from Gram-negative bacteria. Next, the ability of SLN128 to detect either LPS or 3-Nitropropionic acid (3-NP) induced ROS in human cells was evaluated through live-cell fluorescence imaging. LPS is detected by toll-like receptor 4 (TLR4), a broadly expressed pattern recognition receptor found both on different cell types, including glial cells, and neurons. TLR4 engagement triggers the generation of mitochondrial superoxide from electron transport complex I, which in turn promotes bacterial killing. LPS treatment also triggers increased cytokine and chemokine expression in brain thus driving inflammation. […] To this end, intracellular localization of SLN-128 in either the presence or absence of mitotracker deep red (control) was simulataneously assessed in either the LPS or 3-NP stimulated human glioblastoma U87 cells (see e.g., FIG. 4). […] The probe uptake was quantified as corrected total cell fluorescence (CTCF) using image J as described earlier. […] Uptake in brain and other critical organs was analyzed in terms of percent injected dose per gram of the tissue (% ID/g).

For series [5] the following is noted: normal mice, cited from earlier work.
The mark [6] stands for this setting: PBS with 1.0% ethanol, excited with a 402 nm laser.

`COc1ccc2c(c1)N(C)C(c1ccc(O)c(OCCF)c1)c1cccn1-2` (stereo not shown) [SLN128]: the “reactive oxygen species detected” value in series [1] is “both superoxide and hydroxyl radical”. Also, the “fluorescence response in G-GO system” value in series [1] (37° C., PBS pH 7.2) is recorded as “only a slight increase in fluorescence”. Besides, the “response to HRP in G-GO system (hydroxyl radical)” value in series [1] (37° C., PBS pH 7.2, normalized to untreated SLN128) is reported as 10 fold. For the same compound, in series [1] (xanthine oxidase/xanthine or SIN-1 with CPTIO, neutralized by SOD), the detection of superoxide entry is recorded as “ability to detect superoxide”. In addition, in series [2] (setting [6]), the broad emission peak is 520-540 nm and the emission maximum was 530 nm. The “enhancement of mean fluorescence intensity following oxidation” value in series [2] (following its oxidation) stood at 4 fold. Besides, the “localization in brain sections ex vivo” value in series [3] is “localizes in microglial cells and neurons; also recorded: maps markers for microglial and neuronal cells”. Also, the “fluorescence in LPS- or 3-NP stimulated cells compared to untreated U87 cells” value in series [4] (LPS or 3-NP stimulation) is on record as “higher fluorescence”. In addition, the intracellular localization entry in series [4] is given as “penetrates into mitochondria of U87 cells”. Also, the intracellular localization result in series [4] (listed as SLN 128) is “maps both mitotracker and mitoSOX”. Also, the “monitoring of therapeutic effect (CTCF)” value in series [4] (presence or absence of resveratrol) is given as “ability to monitor resveratrol-induced mitigation of ROS”.
On to `CNc1ccc(/C=C/c2ccc(OCCOCCOCC[18F])nc2)cc1` [[^18F]-AVID-45, [^18F]-Florbetapir], for which the brain uptake in series [5] (2 min) is recorded as 7.33±1.54 % ID/g; in series [5] (2 h) it was 1.80±0.07 % ID/g. In addition, the “brain uptake ratio 2 min/2 h” value in series [5] was 4.07.
On to `CNc1ccc(/C=C/c2ccc(OCCOCCOCC[18F])cc2)cc1` [[^18F]-Florbetaben], for which the brain uptake in series [5] (2 min) is listed as 4.77 % ID/g; in series [5] (4 h) it was 0.95 % ID/g. Moreover, in series [5], the “brain uptake ratio 2 min/4 h” value was 5.0.
For the compound `COCOc1ccc(-c2c3cccn3c3ccc(OC)cc3[n+]2C)cc1OCCF.[I-]` [compound 15], the “emission shift following oxidation” value in series [2] (oxidized form) is 580 nm.
